Where “and” joins values, the source holds several entries; their conditions need not be identical. Equal values may be shown once.
Key:
[1] = Body weight of ovariectomized rats on diets; format: in vivo, rat; details: for body weight throughout experiment (FIG. 6A): vs control diet / all other groups
Description: (§1) The animals arrived at approximately 60 days of age, and were placed on specific diets throughout the study (to approximately 160 days of age). The diets were formulated and provided by Dyets Inc. (Bethlehem, Pa.) and are based on a modified AIN-93G diet. These diets were fed ad libitum. Two weeks after arrival, at approximately 80 days of age, the animals were ovariectomized, allowed to recover for three weeks, and then placed on defined diets. In the first study, these diets contained 0, 0.08, 0.48, 3.2, 18.5, 185, or 3700 μg/kg/day of NMS dihydrochloride (FIG. 2). In the second, follow-up study, the diets contained no NMS (control), NMS oxalate (18.5 or 55.5 μg/kg/d), or milled Zanthoxylum seed in quantities that supplied NMS-glucoside at equivalent doses (18.5 or 55.5 μg/kg/d; FIG. 8). The NMS and NMS-glucoside content was verified using liquid chromatography with mass spectrometric detection. Extraction methods were similar to those of Yanase et al., 2010.
(§2) All diets were fed for 2 weeks prior to the first behavioral assessment (open field). Positive control animals received a 5.0 mm subcutaneous silastic capsule implant packed with a crystalline 17β-estradiol and cholesterol mixture (25%, 0.058 inch inner diameter, 0.077 inch outer diameter; Dow Corning #508-006). Animals were then examined for locomotor activity (open field) and in two behavioral assays to assess mood (elevated plus maze and swim test) separated by two weeks in-between each assay. Two weeks after the final behavioral task (swim test), the animals were anesthetized and their physiological response to an experimentally-induced hot flash was tested. After the temperature monitoring was complete, tissue was harvested while the animals were still anesthetized.

[2] = tested on: ovariectomized female rats; assay: Forced swim test (depressive-like behaviors); format: in vivo, rat
Protocol: Swim Test. Each rat was examined in the swim test for depressive-like behaviors. The test was performed over two consecutive days since it is a measure of an adaptive response to a perceived inescapable situation. The first test establishes to the animal that it is an inescapable situation, and the second test measures the animal's degree of passive coping derived from an unwillingness to maintain effort in an inescapable situation. Typical antidepressants limit the amount of passive coping (immobility) and promote the amount of active coping (swimming/climbing). On day one (0800 h to 1300 h), animals were acclimated to the test by placing them in a plexiglass cylindrical container (45 cm×20 cm) filled with 30 cm of fresh water (25° C.) for fifteen minutes, after which they were toweled dried and returned to their home cage. On day two (24 hrs later) the test was performed for a total swim time of five minutes, after which the rats were toweled dried and returned to their home cage. Both trials were recorded by a digital video camera was secured to the ceiling above the cylinders and connected to a laptop. Total time spent swimming and immobile was measured real-time by behavioral software (Anymaze, Stoelting Co.), and scored post hoc by a blinded experimenter from captured video. […] Immobility was defined as absence of any movement except for slight movements necessary for the animal to keep its head above water. Climbing was defined as rapid movement of the forelimbs that broke the surface of the water.

[3] = tested on: ovariectomized female rats; assay: Uterine weight (uterotrophic effect) in ovariectomized rats; format: in vivo, rat; details: vs ovariectomized controls; for uterine weight (FIG. 6D): first study, after 80 days of supplementation; for uterine weight / uterine growth (FIG. 11A): follow-up study
Description: as §1, §2

[4] = Circulating (plasma) estradiol in ovariectomized rats; format: in vivo, rat; details: dietary NMS; for plasma estradiol level (FIG. 5): first study, estradiol implant as positive control
Description: as §1, §2

[5] = tested on: ovariectomized female rats; assay: CGRP-induced hot flash / skin temperature in ovariectomized rats; format: in vivo, rat; details: for CGRP response of skin temperature above baseline (representative data, FIG. 3) / basal skin temperature (representative data, FIG. 3): NMS 0.48 or 18.5 ug/kg/d through diet, estradiol subcutaneous; for CGRP response of skin temperature above baseline (representative data, FIG. 3) / basal skin temperature (representative data, FIG. 3) / CGRP-induced hot flash response (repeated measures ANOVA, FIG. 9A): vs untreated controls; for CGRP-induced hot flash response (repeated measures ANOVA, FIG. 9A): seed supplying NMS-glucoside or NMS oxalate 18.5 or 55.5 μg/kg/d in diet, estradiol implant
Description: as §1, §2
Ovariectomy. Two weeks after arrival, each animal was anesthetized via isoflurane inhalation and the dorsal mid-lumbar area was shaved and swabbed with surgical scrub, iodine and alcohol. The animal was then placed on a warm heat pad covered by a sterile cloth/pad in ventral recumbency with tail towards surgeon. A 2-3 cm dorsal midline skin incision was made halfway between the caudal edge of the ribcage and the base of the tail. A single transverse incision of 5.5-10 mm long was made into the muscle wall on both the right and left sides approximately ⅓ of the distance between the spinal cord and the ventral midline. The ovary and the oviduct were exteriorized through the muscle wall. A hemostat was clamped around the uterine vasculature between the oviduct and uterus and the uterine vasculature was ligated with dissolvable suture. Each ovary and part of the oviduct was removed with single cuts through the oviducts near the ovary. The hemostat was removed, and the remaining tissue replaced into the peritoneal cavity. The ovary on the other side was removed in a similar manner. The muscle incision is not sutured. Sterile wound clips were used to close the skin incision. Animals were monitored daily for signs of infection or morbidity.
Hot Flash Studies. Animals were anesthetized with intraperitoneal co-injection of urethane (750 mg/kg) and α-chloralose (60 mg/kg). […] Thermistor probes (ADI Instruments, Colorado Springs, Colo.) were taped to the plantar surfaces of one hind foot. Forty minutes later, after anesthesia-induced hypothermia had stabilized, the basal skin temperature was recorded. Temperature monitoring then occurred at 5-second intervals throughout the remainder of the experiment. Calcitonin gene related peptide (CGRP; 10 μg/kg, i.v.) dissolved in saline was then injected via the tail vein. A maximum of eight animals were tested at the same time due to limitations on instrumental throughput. Cage mates were always tested together in order to avoid the stresses of single-housing and the potential stress hormone effects on body temperature. Therefore only four groups could be tested within any one given day.

[6] = target: serotonin reuptake transporter (SERT) (Homo sapiens, UniProt P31645); details: FIG. 1C, Powell et al., 2008, cited from earlier work
Chain of serotonin reuptake transporter (SERT) (P31645 whole entry, species assumed): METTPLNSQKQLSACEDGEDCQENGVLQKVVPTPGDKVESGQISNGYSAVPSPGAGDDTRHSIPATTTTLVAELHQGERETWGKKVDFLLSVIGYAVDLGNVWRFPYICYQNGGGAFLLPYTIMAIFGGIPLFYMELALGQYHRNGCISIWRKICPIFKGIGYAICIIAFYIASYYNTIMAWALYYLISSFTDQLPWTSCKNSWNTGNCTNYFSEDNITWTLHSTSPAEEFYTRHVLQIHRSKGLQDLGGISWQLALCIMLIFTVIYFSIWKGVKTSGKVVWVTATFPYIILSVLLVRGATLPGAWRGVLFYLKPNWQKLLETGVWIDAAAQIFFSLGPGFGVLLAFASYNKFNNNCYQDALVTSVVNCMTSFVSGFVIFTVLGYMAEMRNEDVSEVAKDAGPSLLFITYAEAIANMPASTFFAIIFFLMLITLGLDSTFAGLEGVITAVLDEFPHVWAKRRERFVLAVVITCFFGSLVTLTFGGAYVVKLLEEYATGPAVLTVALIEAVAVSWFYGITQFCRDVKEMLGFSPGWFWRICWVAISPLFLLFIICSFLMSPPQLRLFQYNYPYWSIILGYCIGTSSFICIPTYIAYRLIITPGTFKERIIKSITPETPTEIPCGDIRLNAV

5-HT7 receptor [7] = target: T1, 5-HT7 receptor (Homo sapiens, UniProt P34969); details: 5-HT7 vs other 5-HT receptors; cited from earlier work
T1 sequence (P34969 whole entry): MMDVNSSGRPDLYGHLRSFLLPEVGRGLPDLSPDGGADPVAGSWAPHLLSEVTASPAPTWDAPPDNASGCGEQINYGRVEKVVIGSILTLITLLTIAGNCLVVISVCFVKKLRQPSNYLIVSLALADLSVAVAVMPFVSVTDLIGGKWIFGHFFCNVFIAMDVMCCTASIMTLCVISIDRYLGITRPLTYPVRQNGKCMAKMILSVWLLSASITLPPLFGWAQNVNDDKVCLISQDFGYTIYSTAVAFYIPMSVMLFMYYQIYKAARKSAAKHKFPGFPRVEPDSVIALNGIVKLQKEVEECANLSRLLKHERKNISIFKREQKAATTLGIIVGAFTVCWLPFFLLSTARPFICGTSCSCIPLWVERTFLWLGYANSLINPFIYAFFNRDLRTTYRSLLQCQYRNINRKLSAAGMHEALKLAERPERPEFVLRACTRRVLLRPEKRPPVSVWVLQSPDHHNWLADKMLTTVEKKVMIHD

[8] = tested on: ovariectomized female rats; assay: Open field task (locomotion, anxiety-like behaviors); format: in vivo, rat
Protocol: (§3) Open Field Task. Animals were tested in the open field to measure overall locomotor activity and basal anxiety state. In the open field test each rat is placed in a novel environment consisting of an arena measuring 100×100×40 cm. Rats were placed in the middle of the chamber and behavior in the open field was recorded for thirty minutes with a digital camera and measured by software (AnyMaze, Stoelting Co., Inc.). The following parameters were analyzed: a) total distance traveled; b) time in center; c) center entries; and d) number of fecal boli excreted.

[9] = tested on: ovariectomized female rats; assay: Elevated plus maze task (anxiety-like behaviors); format: in vivo, rat
Protocol: Elevated Plus Maze Task. Animals were tested on the elevated plus maze to measure anxiety-related behavior. The plus-maze is elevated ˜85 cm above the floor and consisted of two open and two closed arms of the same size (50×10 cm). The closed arms were surrounded by walls 40 cm high, and the arms were constructed of black acrylic slabs that radiate from a central platform (10×10 cm) to form a plus sign (Lafayette Instruments, Lafayette, Ind.). Each rat was placed in the central platform facing one of the open arms, and its behavior was recorded during a 5-min testing period with video capture software (AnyMaze). The amount of time spent on open and closed arms and the number of entries into open and closed arms were assessed with video analysis (AnyMaze). In addition, the animals were scored live by the experimenter for time spent rearing, grooming, and number of stretch-attend postures and head dips over the edge of the open arm.

5-HT7 receptor [10] = target: T1, 5-HT7 receptor; details: FIG. 1B, cited from earlier work
[11] = tested on: ovariectomized female rats; assay: Behavioral measures of mood overall (open field, elevated plus maze, swim test); format: in vivo, rat
Protocol: Animal Handling. Rats were handled each day for four days prior to behavioral analysis. This involved gently removing the animal from its cage and holding it in the experimenter's lap on a towel without restraint, allowing the animal to explore. This acclimatized the animal to handling by experimenters. All behavioral testing occurred in a room adjacent to the colony room, and the animals were acclimated to the test room overnight prior to testing.
as §3
Elevated Plus Maze Task. […] Each rat was placed in the central platform facing one of the open arms, and its behavior was recorded during a 5-min testing period with video capture software (AnyMaze). The amount of time spent on open and closed arms and the number of entries into open and closed arms were assessed with video analysis (AnyMaze). […]

C[C@]12CC[C@@H]3c4ccc(O)cc4CC[C@H]3[C@@H]1CC[C@@H]2O [estradiol, 17β-estradiol, reference compound]
body weight throughout experiment (FIG. 6A) ([1]; first study): significantly lower body weight
body weight throughout the experiment (FIG. 11B) ([1]; follow-up study, vs all other groups): significantly lower body weight
time immobile, second session of forced swim test (FIG. 7A) ([2]; first study): spent less time immobile
uterine weight (FIG. 6D) [3]: significantly higher uterine weights
uterine weight / uterine growth (FIG. 11A) [3]: significantly higher uterine weights
plasma estradiol level (FIG. 5) [4]: highest levels of plasma estradiol
CGRP response of skin temperature above baseline (representative data, FIG. 3) ([5]; first study): lowest responses to CGRP
basal skin temperature (representative data, FIG. 3) ([5]; first study): lowest basal temperatures
CGRP-induced hot flash response (repeated measures ANOVA, FIG. 9A) ([5]; follow-up study): blunted the CGRP-induced hot flash response

CNCCc1c[nH]c2ccc(O)cc12 [NMS, N-methylserotonin]
fold lower affinity than Prozac at the serotonin reuptake transporter [6]: 100 fold
IC50 ([6]; read-out: IC50 of serotonin reuptake transporter inhibition): ~500 nM
binding preference among 5-HT receptors (5-HT7 receptor [7]): binds preferentially to 5-HT7 receptors over other 5-HT receptors
weight change as a percentage of original weight (FIG. 6B, C) ([1]; first study, throughout or at the end of the study): not different between dietary treatments
body weight throughout experiment (FIG. 6A) ([1]; first study): did not alter body weight
overall weight change as a percentage of original weight at the end of the study (FIG. 11C) ([1]; follow-up study): not different between dietary treatments
weight change as a percentage of original weight over time (FIG. 11B) ([1]; follow-up study, vs controls): different between controls and pepper supplemented or NMS supplemented groups
time spent climbing, second session of forced swim test (FIG. 7B) ([2]; first study): no significant differences amongst groups
effect of treatment in the forced swim test (FIG. 10C) ([2]; follow-up study): No significant effects of treatment
total distance traveled in open field (FIG. 7C) ([8]; first study, 30 minute test): no differences across groups
effect of treatment in the open field (FIG. 10A) ([8]; follow-up study): No significant effects of treatment
time spent in the open arms of elevated plus maze (FIG. 7D) ([9]; first study): no differences amongst groups
effect of treatment in the elevated plus maze (FIG. 10B) ([9]; follow-up study): No significant effects of treatment
uterine weight (FIG. 6D) [3]: did not alter uterine weight
uterine weight / uterine growth (FIG. 11A) [3]: did not alter uterine weight
concentration of maximal activation of the 5-HT7 receptor (5-HT7 receptor [10]): 50 to 100 nM
EC50 (5-HT7 receptor [10]; read-out: EC50 of 5-HT7 receptor activation): ~22 nM and 22 nM
plasma estradiol level (FIG. 5) [4]: increased plasma estradiol in a dose-dependent manner
non-uterine estradiol secretion ([4]; ovariectomized rats): tripled
behavioral measures of mood (FIG. 7) ([11]; first study, dietary NMS): did not alter behavioral measures of mood
behavioral measures of mood / mood-related behaviors (FIG. 10) ([11]; follow-up study): did not alter behavioral measures of mood
human equivalent dose (HED) for thermoregulatory effects ([5]; body surface area (BSA) method, first study): 150 to 840 µg/day
basal skin temperature (FIG. 4) ([5]; first study, 18.5 ug/kg/d dietary NMS vs untreated controls): decreased basal skin temperature
CGRP response of skin temperature above baseline (representative data, FIG. 3) ([5]; first study): lower CGRP responses
basal skin temperature (representative data, FIG. 3) ([5]; first study): lower basal temperatures
CGRP-induced hot flash response, baseline corrected (repeated measures ANOVA, FIG. 4) ([5]; first study, dietary NMS): blunted the CGRP-induced hot flash response
CGRP-induced hot flash response (repeated measures ANOVA, FIG. 9A) ([5]; follow-up study): blunted the CGRP-induced hot flash response

CNCCc1c[nH]c2ccc(O[C@@H]3O[C@H](CO)[C@@H](O)[C@H](O)[C@H]3O)cc12 [NMS-glucoside, N-methylserotonin 5-O-6-glucoside]
human equivalent dose (HED) ([5]; BSA calculation, follow-up study, NMS-glucoside in milled seed): 150 to 540 µg/day

— patent US20140213536A1, “MARKETING N-METHY[…] RELATED SUBSTANCES FOR USE IN TREATING/ LESSENING THE OCCURRENCE OF HOT FLASHES RELATED TO MENOPAUSE” (DSM IP ASSETS B.V., priority 2013, published 2014)
